A word on the Ki: it is the equilibrium dissociation constant of an inhibitor or competing ligand from its target.

This test concerns the target Sushi domains (SD1/2) protein. Briefly: Fluorescence polarization (FP) competition assay with AJAP-1probe, calculated Ki. The class given is binding. The method in brief: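 Competition against 25 nM TAMRA-labelled peptide probe binding SD1/2, in PBS pH 7.4 with 1% BSA at rt, read at 530/580 nm. IC50 from sigmoidal dose-response fits, at least triplicate; Ki calculated from IC50 using probe Kd from saturation binding.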

Read-outs that look alike come from different tables or passages of the source. Residues, ends and D or L forms follow the SMILES beside them.

`CC[C@H](C)[C@H](NC(=O)[C@H](Cc1ccccc1)NC(=O)[C@H](CCC(=O)O)NC(=O)[C@@H](NC(=O)[C@H](CCC(=O)O)NC(=O)[C@@H](NC(=O)[C@@H](NC(C)=O)[C@@H](C)O)[C@@H](C)O)[C@@H](C)O)C(=O)N[C@@H](C)C(=O)N[C@@H](Cc1c[nH]c2ccccc12)C(=O)NCC(=O)N1CCC[C@H]1C(=O)N[C@H](C(=O)NCC(=O)N[C@@H](CC(=O)O)C(=O)N[C@@H](CCC(=O)O)C(N)=O)[C@@H](C)O` (Ac-TTETEFIAWGPTGDE-NH2): the Ki (Table 3, SPOT hit validation and previously reported peptides, read-out: Ki (nM) mean ± SEM) is 73 ± 1 nM. With `CC[C@H](C)[C@H](NC(=O)[C@H](C)NC(=O)[C@H](Cc1c[nH]c2ccccc12)NC(=O)[C@@H]1CCCN1C(C)=O)C(=O)N[C@H](C(=O)N[C@@H](Cc1c[nH]c2ccccc12)C(=O)NCC(=O)N1CCC[C@H]1C(=O)N[C@H](C(=O)N[C@H](C(=O)N[C@@H](C)C(=O)N[C@@H](CCCNC(=N)N)C(=O)N[C@@H](CCC(=O)O)C(=O)N[C@@H](CC(=O)O)C(N)=O)C(C)C)[C@@H](C)O)C(C)C` [PWAIVWGPTVARED] (Ac-PWAIVWGPTVARED-NH2), the Ki (Table 9, Ala-, D-amino acids and N-methylation scans of PIANPWT, read-out: Ki (nM) mean ± SEM) was 480 ± 4 nM. On to `CC[C@H](C)[C@H](NC(=O)[C@H](Cc1ccccc1)NC(=O)[C@H](CCC(=O)O)NC(=O)[C@@H](NC(=O)[C@H](CCC(=O)O)NC(C)=O)[C@@H](C)O)C(=O)N[C@@H](C)C(=O)N[C@@H](Cc1c[nH]c2ccccc12)C(=O)NCC(=O)N1CCC[C@H]1C(=O)N[C@H](C(=O)NCC(=O)N[C@@H](CC(=O)O)C(=O)N1CCC[C@H]1C(=O)N[C@@H](CC(=O)O)C(N)=O)[C@@H](C)O` (Ac-ETEFIAWGPTGDPD-NH2), for which the Ki (Table 11, deep mutational scanning validation variants of AJAP-1WT, read-out: Ki (nM) mean ± SEM) was 34 ± 2 nM. Take `CC[C@H](C)[C@H](NC(=O)[C@H](C)NC(=O)[C@H](CC(=O)O)NC(=O)[C@@H]1CCCN1C(C)=O)C(=O)N[C@H](C(=O)N[C@@H](Cc1c[nH]c2ccccc12)C(=O)NCC(=O)N1CCC[C@H]1C(=O)N[C@H](C(=O)N[C@H](C(=O)N[C@@H](CO)C(=O)N[C@@H](CCCNC(=N)N)C(=O)N[C@@H](CCC(=O)O)C(=O)N[C@@H](CC(=O)O)C(N)=O)C(C)C)[C@@H](C)O)C(C)C` [PDAIVWGPTVSRED] (Ac-PDAIVWGPTVSRED-NH2): under “Table 12, deep mutational scanning validation variants of PIANPWT, read-out: Ki (nM) mean ± SEM”, the inhibitory constant (Ki) was 673 ± 7 nM. As for `CCOc1ccc(C[C@H](NC(=O)[C@H](CO)NC(=O)[C@H](CC(=O)O)NC(=O)[C@H](CC(=O)O)NC(=O)[C@H](CCC(=O)O)NC(C)=O)C(=O)N[C@H](C(=O)N[C@@H](Cc2c[nH]c3ccccc23)C(=O)N[C@@H](Cc2c[nH]c3ccccc23)C(=O)NCC(=O)NCC(=O)N[C@@H](C)C(=O)N[C@@H](CC(=O)O)C(=O)N[C@H](C(=O)N[C@@H](CC(=O)O)C(N)=O)[C@@H](C)O)C(C)C)cc1` (Ac-EDDSY(Et)VWWGGADTD-NH2), the Ki by setting is: (Table 16, ncAAs incorporated peptides, read-out: Ki (nM) mean ± SEM) 46 ± 2 nM; (purified peptides, read-out: Ki) 46.3 nM. Besides, the “fold increased affinity compared to Asp207Trp” value (relative to Asp207Trp mutant of APPWT) was 2 fold. For the compound `CC[C@H](C)[C@H](NC(=O)[C@H](Cc1c[nH]c2ccccc12)NC(=O)[C@H](CC(=O)O)NC(=O)[C@H](CC(=O)O)NC(=O)[C@H](CC(=O)O)NC(=O)[C@H](CCC(=O)O)NC(C)=O)C(=O)N[C@@H](CC(=O)O)C(=O)N[C@@H](Cc1c[nH]c2ccccc12)C(=O)NCC(=O)N1CCC[C@H]1C(=O)N[C@H](C(=O)N[C@@H](CO)C(=O)N[C@@H](CC(=O)O)C(=O)N[C@@H](CC(=O)O)C(=O)N[C@@H](CC(=O)O)C(=O)N[C@@H](Cc1ccc(O)cc1)C(=O)NCC(=O)N[C@@H](CCCNC(=N)N)C(=O)N[C@@H](CCCCN)C(=O)N[C@@H](CCCCN)C(=O)N[C@@H](CCCNC(=N)N)C(=O)N[C@@H](CCCNC(=N)N)C(=O)N[C@@H](CCC(N)=O)C(=O)N[C@@H](CCCNC(=N)N)C(=O)N[C@@H](CCCNC(=N)N)C(=O)N[C@@H](CCCNC(=N)N)C(N)=O)[C@@H](C)O` [Peptide 17-Tat] (Ac-EDDDWIDWGPTSDDDYGRKKRRQRRR-NH2), the Ki reads like this: (CPP tagged peptides overview, SD1/2 binding affinity, mean ± SEM, n ≥ 3, read-out: Ki) 79 ± 1 nM; (Table 14, CPPs tagged peptides, read-out: Ki (nM) mean ± SEM) 78.5 ± 1 nM.

(Values after US20260193293A1, “PEPTIDES CAPABLE OF INHIBITING PROTEIN-PROTEIN INTERACTIONS AT GABAB1A SUBUNIT AND USES THEREOF” (UNIVERSITY OF COPENHAGEN, priority 2022, published 2026).)
